{"source": "paper PMC8620242", "about": "(Journal of Advanced Research, 2021)", "key": {"SARS-CoV-2 pseudovirus": {"test_system": "SARS-CoV-2 pseudovirus", "assay_type": "cell-based"}, "in vivo [1]": {"experiment": "in vivo", "set-up": "species or system rats", "details": "male, Sprague-Dawley, rat, po, 40 mg/kg"}, "[2]": {"target": "RBD of SARS-CoV-2 spike protein (Severe acute respiratory syndrome coronavirus 2, UniProt P0DTC2)", "experiment": "biochemical", "assay_type": "binding"}, "nsp8": {"target": "nsp8 (Severe acute respiratory syndrome coronavirus 2, UniProt P0DTD1)", "experiment": "biochemical", "assay_type": "binding, SARS-CoV-2"}, "[3]": {"details": "male, Sprague-Dawley, rat, in vivo"}, "nsp7": {"target": "nsp7 (Severe acute respiratory syndrome coronavirus 2, UniProt P0DTD1)", "experiment": "biochemical", "assay_type": "binding, SARS-CoV-2"}, "SARS-CoV-2 spike protein": {"target": "SARS-CoV-2 spike protein (Severe acute respiratory syndrome coronavirus 2, UniProt P0DTC2)", "experiment": "biochemical", "assay_type": "binding"}, "in vivo [4]": {"experiment": "in vivo", "details": "male, Sprague-Dawley, rat, po, 40 mg/kg"}, "Vero E6 cells": {"test_system": "Vero E6 cells", "assay_type": "cell-based", "details": "CCK-8"}, "ACE2": {"target": "ACE2", "details": "read-out: KD for binding to ACE2; cited from earlier work"}}, "data": [{"molecule": "CC1(C)[C@@H](O)CC[C@]2(C)[C@H]3C(=O)C=C4[C@@H]5C[C@@](C)(C(=O)O)CC[C@]5(C)CC[C@@]4(C)[C@]3(C)CC[C@@H]12", "note": "[GA, glycyrrhetinic acid]", "values": [{"measurement": "inhibitory activity in blocking, attachment and entry procedures", "setting": "SARS-CoV-2 pseudovirus", "value": "significant inhibitory activities"}, {"measurement": "Tmax", "setting": "in vivo [1]", "value": 2, "unit": "h"}, {"measurement": "half-life", "setting": "in vivo [1]", "value": 18.2, "unit": "h"}, {"measurement": "Kd", "setting": "[2]", "value": 2.33, "unit": "µM"}, {"measurement": "Kd", "setting": "nsp8", "value": 91.2, "unit": "µM"}, {"measurement": "maximum plasma concentration", "setting": "[3]", "value": 5.68, "unit": "µM"}, {"measurement": "Kd", "setting": "nsp7", "value": 384, "unit": "µM"}, {"measurement": "IC50", "setting": "SARS-CoV-2 spike protein", "value": 10.9, "unit": "µM"}, {"measurement": "inhibition at 10 µM", "setting": "SARS-CoV-2 spike protein; read-out: inhibition rate against SARS-CoV-2 spike protein by ELISA", "value": 51.9, "unit": "%"}, {"measurement": "half-life", "setting": "in vivo [4]", "value": 9.91, "unit": "h"}]}, {"molecule": "CC1(C)[C@@H](O[C@H]2O[C@H](C(=O)O)[C@@H](O)[C@H](O)[C@H]2O[C@@H]2O[C@H](C(=O)O)[C@@H](O)[C@H](O)[C@H]2O)CC[C@]2(C)[C@H]3C(=O)C=C4[C@@H]5C[C@@](C)(C(=O)O)CC[C@]5(C)CC[C@@]4(C)[C@]3(C)CC[C@@H]12", "note": "[GA-gg, glycyrrhizic acid]", "values": [{"measurement": "activity in the pseudovirus system", "setting": "SARS-CoV-2 pseudovirus", "value": "weak activities"}, {"measurement": "binding to RBD", "setting": "[2]; SPR", "value": "very weak bindings"}, {"measurement": "maximum plasma concentration", "setting": "[3]", "value": 10.23, "unit": "µM"}]}, {"molecule": "C=C(C)[C@@H]1CC[C@]2(C(=O)O)CC[C@]3(C)[C@H](CC[C@@H]4[C@@]5(C)CC[C@H](O)C(C)(C)[C@@H]5CC[C@]43C)[C@@H]12", "note": "[betulinic acid]", "values": [{"measurement": "cytotoxicity", "setting": "Vero E6 cells", "value": "remarkable cytotoxicity"}, {"measurement": "IC50", "setting": "SARS-CoV-2 spike protein", "value": 15.1, "unit": "µM"}]}, {"molecule": "C[C@H]1[C@H](C)CC[C@]2(C(=O)O)CC[C@]3(C)C(=CC[C@@H]4[C@@]5(C)CC[C@H](O)C(C)(C)[C@@H]5CC[C@]43C)[C@H]12", "note": "[ursolic acid]", "values": [{"measurement": "cytotoxicity", "setting": "Vero E6 cells", "value": "remarkable cytotoxicity"}, {"measurement": "IC50", "setting": "SARS-CoV-2 spike protein", "value": 9, "unit": "µM"}]}, {"molecule": "dalbavacin", "values": [{"measurement": "Kd", "setting": "ACE2", "value": 0.147, "unit": "µM"}]}]}
